# Assay results taken from article PMC12017303 (Science Advances, 2025).
# Assays:
# SARS-CoV-2 M^Pro [1] = target: T1, SARS-CoV-2 M^Pro (Severe acute respiratory syndrome coronavirus 2, UniProt P0DTD1); experiment: biochemical
# in vitro [2] = settings: human
# in vitro [3] = settings: PAMPA, pH 7.4
# SARS-CoV-2 M^Pro [4] = target: T1, SARS-CoV-2 M^Pro; experiment: biochemical; remark: listed apart in the source
# SARS-CoV-1 M^Pro = SARS-CoV-1 M^Pro (Severe acute respiratory syndrome coronavirus, UniProt P0C6X7); experiment: biochemical
# SARS-CoV-2 M^Pro [5] = target: T1, SARS-CoV-2 M^Pro; type: biochemical
# [6] = target: SARS-CoV-2 M^Pro (Cys^145) (Severe acute respiratory syndrome coronavirus 2, UniProt P0DTD1); type: binding
# [7] = system: SARS-CoV-2 WA.1 replicon in Vero ACE2 TMPRSS2; experiment: microbe, parasite or virus in culture; type: cell-based; settings: Severe acute respiratory syndrome coronavirus 2, Vero, read-out: Replicon replication in Vero ACE2 TMPRSS2 EC50: WA.1
# [8] = system: SARS-CoV-2 BA.2.86.1 replicon in Vero ACE2 TMPRSS2; experiment: microbe, parasite or virus in culture; type: cell-based; settings: Severe acute respiratory syndrome coronavirus 2, Vero, read-out: Replicon replication in Vero ACE2 TMPRSS2 EC50: BA.2.86.1
# [9] = system: SARS-CoV-2 WA.1 (icSARS-CoV-2-mNG) in A549-ACE2^h; experiment: microbe, parasite or virus in culture; type: cell-based; settings: Severe acute respiratory syndrome coronavirus 2, read-out: Viral replication in A549-ACE2^h EC50: WA.1
# [10] = system: human cytochrome P450 (CYP) isoforms
# in vitro [11] = settings: human, microsomes, pH 7.4
# in vitro [12] = settings: mouse, microsomes, pH 7.4
# in vitro [13] = settings: plasma
# CYP2C8 = CYP2C8 (Homo sapiens, UniProt P10632); settings: 10 μM
# CYP2C8, sequence (P10632 whole entry): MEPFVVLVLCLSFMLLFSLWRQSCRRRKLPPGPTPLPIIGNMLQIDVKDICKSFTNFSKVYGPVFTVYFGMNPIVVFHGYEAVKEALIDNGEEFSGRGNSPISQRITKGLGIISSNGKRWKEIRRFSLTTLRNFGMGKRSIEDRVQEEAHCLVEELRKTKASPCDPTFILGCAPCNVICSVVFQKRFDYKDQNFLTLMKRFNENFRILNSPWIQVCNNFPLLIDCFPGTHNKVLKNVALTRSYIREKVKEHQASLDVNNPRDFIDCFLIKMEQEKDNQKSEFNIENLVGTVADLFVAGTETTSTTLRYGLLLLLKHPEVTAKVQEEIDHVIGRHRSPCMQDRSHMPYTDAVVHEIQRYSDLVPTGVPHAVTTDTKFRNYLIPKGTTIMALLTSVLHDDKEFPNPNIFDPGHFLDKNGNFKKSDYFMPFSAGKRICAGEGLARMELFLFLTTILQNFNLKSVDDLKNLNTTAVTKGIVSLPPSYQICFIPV
# [14] = male, CD-1, mouse, in vivo
# [15] = in vivo
# in vivo [16] = settings: male, CD-1, mouse; for AUC(0-t): AUClast
# in vivo [17] = settings: mouse
# physchem = settings: pH 7.4, aqueous buffer, kinetic from dmso stock
# P-gp (MDR1) = experiment: in vitro; settings: dog
# HCoV Alpha 229E = experiment: organism not typed; type: cell-based, HCoV 229E; set-up: SI50 / SI90: unit not given beside the values
# HCoV Beta OC43 = experiment: microbe, parasite or virus in culture; type: cell-based; set-up: SI90 / SI50: unit not given beside the values
# [18] = system: SARS-CoV-2 B.1.617.2 (delta); type: cell-based; set-up: SI50 / SI90: unit not given beside the values
# [19] = system: SARS-CoV-2 BA.2 (omicron); experiment: microbe, parasite or virus in culture; type: cell-based; set-up: SI50 / SI90: unit not given beside the values
# MERS-CoV EMC = experiment: microbe, parasite or virus in culture; type: cell-based; set-up: SI50 / SI90: unit not given beside the values
# SARS-CoV Urbani = experiment: microbe, parasite or virus in culture; type: cell-based; set-up: SI90 / SI50: unit not given beside the values
# [20] = pH 7.4, plasma protein binding (PPB)
# [21] = Middle East respiratory syndrome-related coronavirus, Vero C1008
# [22] = Severe acute respiratory syndrome coronavirus, Vero C1008
smiles,measurement,setting,value
O=c1[nH]c(-c2cccc(Cl)c2)c(-n2nnc3ccccc32)c(=O)n1-c1cncc2ccccc12 [AVI-4303],IC50,SARS-CoV-2 M^Pro [1],300 nM
same,CC50,in vitro [2],> 100 µM
same,viability at 100 µM,in vitro [2],92.3%
same,Papp,in vitro [3],6.6 ×10⁻⁶ cm/s
O=C1CCN(Cc2csc(Cl)c2)C(=O)N1Cc1ccc[nH]c1=O [AVI-3570],IC50,SARS-CoV-2 M^Pro [1],1500 nM
same,CC50,in vitro [2],> 100 µM
same,viability at 100 µM,in vitro [2],100%
O=C1CCN(Cc2cccc(Cl)c2)C(=O)N1Cc1ccc[nH]c1=O [AVI-3993],IC50,SARS-CoV-2 M^Pro [1],8500 nM
C#CCn1c(-c2cccc(Cl)c2)c(-n2nnc3ccccc32)c(=O)n(-c2cncc3ccccc23)c1=O [AVI-4692],IC50,SARS-CoV-2 M^Pro [1],37 nM
same,kinact/KI,SARS-CoV-2 M^Pro [4],27000 M⁻¹ s⁻¹
same,IC50,SARS-CoV-1 M^Pro,120 nM
same,M^Pro activity after dialysis,SARS-CoV-2 M^Pro [5],activity was not regained
same,covalent adduct by whole protein MS,[6],mass shifts consistent with modification at a single site
same,EC50,[7],26 nM
same,EC50,[8],27 nM
same,EC50,[9],6.8 nM
same,"CYP inhibition, result in words",[10]; 10 μM,somewhat more potent inhibitor of both CYP2C8 and CYP3A4
same,Papp,in vitro [3],31.8 ×10⁻⁶ cm/s
same,half-life,in vitro [11],> 120 min
same,half-life,in vitro [12],> 120 min
same,fraction unbound,in vitro [13]; [20],< 0.01
O=C1CCN(Cc2cccs2)C(=O)N1Cc1ccc[nH]c1=O [AVI-1084],CC50,in vitro [2],> 100 µM
same,viability at 100 µM,in vitro [2],100%
C#CCn1c(C)c(-n2nnc3cc(F)c(F)cc32)c(=O)n(-c2cncc3ccccc23)c1=O [AVI-4773],IC50,SARS-CoV-1 M^Pro,95 nM
same,M^Pro activity after dialysis,SARS-CoV-2 M^Pro [5],activity was not regained
same,covalent adduct by whole protein MS,[6],mass shifts consistent with modification at a single site
same,EC50,[7],60 nM
same,EC50,[8],49 nM
same,EC50,[9],19 nM
same,inhibition across the CYP panel,"[10]; human, pH 7.4",≤ 25%
same,CYP2C8 inhibition,CYP2C8,~ 45%
same,Mouse F,[14],110
same,free concentration in plasma,[14],4.045 µM
same,AUClast,"[14]; po, 50 mg/kg",94700 ng·h/mL
same,Plasma T½,"[14]; po, 50 mg/kg",13 h
same,exposure in BALF,"[15]; mouse, po",~ 4400 nM
same,bioavailability,in vivo [16]; F,110%
same,MRT inf,"in vivo [16]; iv, 10 mg/kg",2.06 h
same,clearance,"in vivo [16]; iv, 10 mg/kg",9.57 mL/min/kg
same,half-life,"in vivo [16]; iv, 10 mg/kg",73.2 min
same,AUC(0-inf),"in vivo [16]; iv, 10 mg/kg, AUCINF",17.4 µg·h/mL
same,AUC(0-t),"in vivo [16]; iv, 10 mg/kg",17200 ng·h/mL
same,Vd,"in vivo [16]; iv, 10 mg/kg, Vss",1.18 L/kg
same,bioavailability,in vivo [16]; oral bioavailability (%F),> 100%
same,half-life,"in vivo [16]; po, 50 mg/kg",780 min
same,AUC(0-inf),"in vivo [16]; po, 50 mg/kg, AUCINF",273 µg·h/mL
same,AUC(0-inf),"in vivo [16]; po, 50 mg/kg, AUCinf",272 µg·h/mL
same,AUC(0-t),"in vivo [16]; po, 50 mg/kg",94700 ng·h/mL
same,Cmax,"in vivo [16]; po, 50 mg/kg, CMax",14900 ng/mL
same,Cmax,"in vivo [16]; po, 50 mg/kg, Cmax",14900 ng/mL
same,Tmax,"in vivo [16]; po, 50 mg/kg, TMax",30 min
same,Tmax,"in vivo [16]; po, 50 mg/kg, Tmax",30 min
same,Kp,in vivo [17],~0.08
same,solubility,physchem,431 µM
same,half-life,in vitro [11],> 120 min
same,half-life,in vitro [12],> 120 min
same,fraction unbound,"in vitro [13]; pH 7.4, PPB",0.19
same,fraction unbound,in vitro [13]; [20],0.17
same,Papp B→A,P-gp (MDR1); MDCK-MDR1,70.8 ×10⁻⁶ cm/s
same,Papp A→B,"P-gp (MDR1); MDCK-MDR1, MDCK AB",17.8 ×10⁻⁶ cm/s
O=C1CCN(Cc2csc(Cl)c2)C(=O)N1c1cncc2ccccc12 [AVI-3778],IC50,SARS-CoV-2 M^Pro [1],850 nM
same,"M^Pro inhibition, result in words",SARS-CoV-2 M^Pro [1],submicromolar potencies
same,CC50,in vitro [2],> 100 µM
same,viability at 100 µM,in vitro [2],95.7%
same,Papp,in vitro [3],26.4 ×10⁻⁶ cm/s
"O=c1nc(NO)ccn1[C@@H]1O[C@H](CO)[C@@H](O)[C@H]1O [EIDD-1931, reference compound]",SI50,HCoV Alpha 229E,> 23
same,SI90,HCoV Alpha 229E,> 27
same,EC50,HCoV Alpha 229E; read-out: EC50,440 nM
same,EC90,HCoV Alpha 229E; read-out: EC90,370 nM
same,SI50,HCoV Beta OC43,170
same,SI90,HCoV Beta OC43,190
same,EC50,HCoV Beta OC43; read-out: EC50,35 nM
same,EC90,HCoV Beta OC43; read-out: EC90,32 nM
same,EC50,[18],170 nM
same,EC90,[18],50 nM
same,SI50,[18],210
same,SI90,[18],720
same,SI50,[19],810
same,SI90,[19],1000
same,EC50,[19]; read-out: EC50,53 nM
same,EC90,[19]; read-out: EC90,43 nM
same,CC50,Huh7,> 10 µM
same,CC50,Rhabdomyosarcoma,6.1 µM
O=c1cc(-c2cccc(Cl)c2)[nH]c(=O)n1-c1cncc2ccccc12 [AVI-4301],IC50,SARS-CoV-2 M^Pro [1],6400 nM
same,CC50,in vitro [2],> 100 µM
same,viability at 100 µM,in vitro [2],100%
same,Papp,in vitro [3],31.8 ×10⁻⁶ cm/s
"Cn1cnc(Cn2c(=O)[nH]/c(=N\c3cc4cn(C)nc4cc3Cl)n(Cc3cc(F)c(F)cc3F)c2=O)n1 [ensitrelvir, reference compound]","Brain, Mean","[15]; CD1, mouse",47.9 ng/g
O=C1CCN(Cc2cc(Cl)cs2)C(=O)N1Cc1ccc[nH]c1=O [AVI-3318],IC50,SARS-CoV-2 M^Pro [1],4600 nM
same,CC50,in vitro [2],> 100 µM
same,viability at 100 µM,in vitro [2],88.9%
O=C1CCN(Cc2cccc(Cl)c2)C(=O)N1c1cncc2ccccc12 [AVI-3779],IC50,SARS-CoV-2 M^Pro [1],660 nM
same,"M^Pro inhibition, result in words",SARS-CoV-2 M^Pro [1],submicromolar potencies
same,CC50,in vitro [2],> 100 µM
same,viability at 100 µM,in vitro [2],100%
same,Papp,in vitro [3],23.9 ×10⁻⁶ cm/s
"CCC(CC)COC(=O)[C@H](C)N[P@](=O)(OC[C@H]1O[C@@](C#N)(c2ccc3c(N)ncnn23)[C@H](O)[C@@H]1O)Oc1ccccc1 [remdesivir, reference compound]",SI50,MERS-CoV EMC,540
same,SI90,MERS-CoV EMC,51
same,EC50,MERS-CoV EMC; [21],3.7 nM
same,EC90,MERS-CoV EMC; [21],39 nM
same,SI50,SARS-CoV Urbani,> 83
same,SI90,SARS-CoV Urbani,> 71
same,EC50,SARS-CoV Urbani; [22],120 nM
same,EC90,SARS-CoV Urbani; [22],140 nM
O=C1CCN(Cc2ccsc2)C(=O)N1Cc1ccc[nH]c1=O [AVI-3320],IC50,SARS-CoV-2 M^Pro [1],23000 nM
same,CC50,in vitro [2],> 100 µM
same,viability at 100 µM,in vitro [2],100%
O=C1CCN(Cc2cccc(F)c2)C(=O)N1c1cncc2ccccc12 [AVI-3780],IC50,SARS-CoV-2 M^Pro [1],800 nM
same,"M^Pro inhibition, result in words",SARS-CoV-2 M^Pro [1],submicromolar potencies
same,CC50,in vitro [2],> 100 µM
same,viability at 100 µM,in vitro [2],100%
same,Papp,in vitro [3],19.6 ×10⁻⁶ cm/s
